# Patent US20180185490A1 (R&D PHARMA, priority 2017, published 2018)
# Experiments:
# [1] = Tolerance in subungual and periungual application; assay type: in vivo
# From the text: (§1) Its tolerance in subungual and periungual application is good and perfectly compatible with the desired therapeutic effect.
# rat = details: by mouth; cited from earlier work
# DNA = details: cited from earlier work
# [2] = Irritation of eyes and mucous membranes; assay type: in vivo; details: pure or concentrated GBL
# From the text: as §1
structure (smiles),measurement,setting,value
"O=C1CCCO1 [GBL, gamma-butyrolactone]",tolerance in subungual and periungual application,[1],good
same,LD50,rat,17.2 mL/kg
same,alteration of DNA,DNA,no alteration of DNA
same,irritation of eyes and mucous membranes,[2],irritating to the eyes and the mucous membranes
